The assay concerns the target Human Cav3.1 (Homo sapiens (Human), UniProt O43497). In words: Human Cav3.1 calcium channel patch clamp assay (SyncroPatch 384PE, HEK-293 natClytin/TASK1+Cav3.1 cell line). Type of assay: cell-based. As to the method: Pulse generation and data collection were performed with PatchController384 V1.3.0 and DataController384 V1.2.1 (Nanion Technologies). Off-line analysis was performed using Excel and Graphpad Prism (V 8.4.2) with complete data files uploaded to Dotmatics. The access resistance and apparent membrane capacitance were estimated using built-in protocols. Current was recorded in whole cell configuration from a population of cells. The cells were lifted, triturated, and resuspended at 800,000 cells/ml. The cells were allowed to recover in the cell hotel prior to experimentation. Currents were recorded at room temperature. The external solution contained the following (in mM): NaCl 80, NMDG 60, KCl 4, MgCl2 1, CaCl2 6, glucose 5 and HEPES 10 (pH=7.4, Osmolarity ˜300 mOsm). The extracellular solution was used as the wash, reference and compound delivery solution. […] The compound plate was created at 2× concentrated in the extracellular solution. The compound was diluted to 1:2 when added to the recording well. The amount of DMSO in the extracellular solution was held constant at the level used for the highest tested concentration. For the voltage clamp experiments on Cav3.1, data were sampled at 10 KHz. After establishment of the seal and the passage in the whole cell configuration, the cells were held at −120 mV. Cav3.1 current was evoked using a 100 ms step to −20 mV (to measure resting state block), followed by a 1600 ms step to −65 mV and a second 100 ms step to −20 mV (to measure voltage dependent block). The voltage protocol was applied every 15 seconds in the absence and in the presence of the compounds under investigation. […] Current amplitude (pA) was measured in the peak 1 and 2. The average of last 3 sweeps of each liquid period (vehicle, compound under investigation, full block) was calculated. Nickel-sensitive current was used to calculate the % of inhibition in the presence of the compound under investigation.
Pulse generation and data collection were performed with PatchController384 V1.3.0 and DataController384 V1.2.1 (Nanion Technologies). Off-line analysis was performed using Excel and Graphpad Prism (V 8.4.2) with complete data files uploaded to Dotmatics. The access resistance and apparent membrane capacitance were estimated using built-in protocols. Current was recorded in whole cell configuration from a population of cells.
The cells were lifted, triturated, and resuspended at 800,000 cells/ml. The cells were allowed to recover in the cell hotel prior to experimentation. Currents were recorded at room temperature. The external solution contained the following (in mM): NaCl 80, NMDG 60, KCl 4, MgCl2 1, CaCl2 6, glucose 5 and HEPES 10 (pH=7.4, Osmolarity ˜300 mOsm). The extracellular solution was used as the wash, reference and compound delivery solution.
The compound plate was created at 2× concentrated in the extracellular solution. The compound was diluted to 1:2 when added to the recording well. The amount of DMSO in the extracellular solution was held constant at the level used for the highest tested concentration. For the voltage clamp experiments on Cav3.1, data were sampled at 10 KHz. After establishment of the seal and the passage in the whole cell configuration, the cells were held at −120 mV. Cav3.1 current was evoked using a 100 ms step to −20 mV (to measure resting state block), followed by a 1600 ms step to −65 mV and a second 100 ms step to −20 mV (to measure voltage dependent block). The voltage protocol was applied every 15 seconds in the absence and in the presence of the compounds under investigation. […] Current amplitude (pA) was measured in the peak 1 and 2. The average of last 3 sweeps of each liquid period (vehicle, compound under investigation, full block) was calculated. Nickel-sensitive current was used to calculate the % of inhibition in the presence of the compound under investigation.
In general terms: Patch clamp records ionic current or voltage across a cell membrane.

[1] abbreviates: patch clamp, HEK-293 natClytin/TASK1+Cav3.1 cells, class symbols, read-out: Human Cav3.1 IC50.
The mark [2] stands for this setting: voltage dependent block (VDB), read-out: Cav3.1 (VDB) IC50.

SMILES strings stand for the structures. Read-outs that look alike come from different tables or passages of the source.

Sequence of Human Cav3.1 (O43497 whole entry): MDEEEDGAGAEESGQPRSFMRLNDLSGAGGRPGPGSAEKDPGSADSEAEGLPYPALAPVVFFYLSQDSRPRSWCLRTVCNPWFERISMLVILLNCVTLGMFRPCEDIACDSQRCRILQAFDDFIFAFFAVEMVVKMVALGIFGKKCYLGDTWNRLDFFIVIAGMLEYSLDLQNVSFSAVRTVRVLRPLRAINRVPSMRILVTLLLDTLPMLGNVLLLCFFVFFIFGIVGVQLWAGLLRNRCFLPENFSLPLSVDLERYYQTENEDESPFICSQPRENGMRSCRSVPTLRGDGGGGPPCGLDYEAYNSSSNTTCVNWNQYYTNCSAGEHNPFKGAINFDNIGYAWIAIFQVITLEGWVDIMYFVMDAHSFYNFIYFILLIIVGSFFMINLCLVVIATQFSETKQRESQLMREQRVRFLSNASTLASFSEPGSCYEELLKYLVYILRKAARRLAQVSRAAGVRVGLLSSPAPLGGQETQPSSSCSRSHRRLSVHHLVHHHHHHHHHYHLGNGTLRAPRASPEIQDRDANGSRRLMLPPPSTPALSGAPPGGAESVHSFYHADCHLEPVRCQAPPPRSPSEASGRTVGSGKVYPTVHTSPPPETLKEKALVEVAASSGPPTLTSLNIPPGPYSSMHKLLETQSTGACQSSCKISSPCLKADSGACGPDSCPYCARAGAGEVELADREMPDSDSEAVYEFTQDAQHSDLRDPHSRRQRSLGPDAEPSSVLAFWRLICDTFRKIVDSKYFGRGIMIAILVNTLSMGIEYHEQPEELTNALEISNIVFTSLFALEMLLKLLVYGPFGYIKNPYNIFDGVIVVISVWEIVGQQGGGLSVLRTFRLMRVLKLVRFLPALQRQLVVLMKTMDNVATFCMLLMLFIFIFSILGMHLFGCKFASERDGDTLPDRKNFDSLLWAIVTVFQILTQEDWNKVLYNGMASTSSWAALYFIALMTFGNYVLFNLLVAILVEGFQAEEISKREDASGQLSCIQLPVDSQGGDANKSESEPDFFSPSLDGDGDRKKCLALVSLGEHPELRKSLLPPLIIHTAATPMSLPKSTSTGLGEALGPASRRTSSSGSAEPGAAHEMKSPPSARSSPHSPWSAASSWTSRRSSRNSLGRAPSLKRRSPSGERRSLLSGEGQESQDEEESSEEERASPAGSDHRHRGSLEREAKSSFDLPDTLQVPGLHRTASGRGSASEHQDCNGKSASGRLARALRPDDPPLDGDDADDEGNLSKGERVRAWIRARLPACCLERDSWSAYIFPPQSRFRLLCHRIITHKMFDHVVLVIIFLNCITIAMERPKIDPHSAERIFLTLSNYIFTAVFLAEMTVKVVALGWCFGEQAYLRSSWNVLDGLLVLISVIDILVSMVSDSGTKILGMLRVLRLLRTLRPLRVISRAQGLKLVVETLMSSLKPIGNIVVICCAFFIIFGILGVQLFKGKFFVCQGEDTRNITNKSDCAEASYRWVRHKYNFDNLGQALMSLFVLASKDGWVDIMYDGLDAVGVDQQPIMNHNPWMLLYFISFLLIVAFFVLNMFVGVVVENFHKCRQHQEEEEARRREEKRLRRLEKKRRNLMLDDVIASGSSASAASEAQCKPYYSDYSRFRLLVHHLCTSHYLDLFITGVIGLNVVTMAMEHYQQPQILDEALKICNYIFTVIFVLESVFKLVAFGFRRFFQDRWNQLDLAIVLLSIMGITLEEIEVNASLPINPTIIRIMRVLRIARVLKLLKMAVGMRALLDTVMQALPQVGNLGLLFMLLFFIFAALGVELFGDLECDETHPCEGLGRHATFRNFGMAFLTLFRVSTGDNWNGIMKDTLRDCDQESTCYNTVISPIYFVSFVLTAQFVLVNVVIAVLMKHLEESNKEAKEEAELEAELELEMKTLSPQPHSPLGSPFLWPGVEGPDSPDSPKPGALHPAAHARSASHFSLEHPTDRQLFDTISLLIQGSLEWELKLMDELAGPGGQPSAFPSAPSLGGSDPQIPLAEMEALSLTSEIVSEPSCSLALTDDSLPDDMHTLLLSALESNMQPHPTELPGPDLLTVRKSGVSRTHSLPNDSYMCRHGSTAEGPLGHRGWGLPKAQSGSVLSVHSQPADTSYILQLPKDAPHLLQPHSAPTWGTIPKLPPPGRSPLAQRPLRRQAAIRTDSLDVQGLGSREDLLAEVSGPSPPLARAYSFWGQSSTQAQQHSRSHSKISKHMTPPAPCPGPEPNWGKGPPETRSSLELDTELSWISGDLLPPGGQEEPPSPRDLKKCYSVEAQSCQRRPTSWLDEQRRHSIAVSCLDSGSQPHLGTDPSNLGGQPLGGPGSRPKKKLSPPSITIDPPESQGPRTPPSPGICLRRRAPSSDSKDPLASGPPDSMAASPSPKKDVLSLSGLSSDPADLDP

Take `CC(C)(C)NC(=O)CN1CC2(CCC(C(=O)Nc3cc(Cl)cc(Cl)c3)CC2)C1` [Example 1, 2-(2-(tert-butylamino)-2-oxoethyl)-N-(3,5-dichlorophenyl)-2-azaspiro[3.5]nonane-7-carboxamide]: the concentration for half-maximal inhibition (IC50) is less than 1000 nM under setting [1] and 176 nM under setting [2].

Consider `CC(C)(C)NC(=O)CN1CC2(CCC(C(=O)Nc3cccc(Cl)c3)CC2)C1` [Example 2], for which, under setting [1], the 50% inhibitory concentration (IC50) is less than 1000 nM.

Consider `CC(C)(C)NC(=O)CN1CC2(CCC(C(=O)Nc3ccc(Cl)cc3)CC2)C1` [Example 3], for which the IC50 under setting [1] was less than 1000 nM and the half-maximal inhibitory concentration (IC50) under setting [2] is 724 nM. The corresponding values for `CC(C)(C)NC(=O)CN1CC2(CCC(C(=O)Nc3cc(F)cc(C(F)(F)F)c3)CC2)C1` [Example 4] are less than 1000 nM and 254 nM.

Consider `Cc1cc(NC(=O)C2CCC3(CC2)CN(CC(=O)NC(C)(C)C)C3)nn1-c1ccccc1` [Example 6], for which the IC50 is 1000 to 10000 nM under setting [1] and 2280 nM under setting [2].

Take `CC(C)(C)NC(=O)CN1CC2(CCC(C(=O)Nc3cc(F)cc(OC(F)F)c3)CC2)C1` [Example 7]: the half-maximal inhibitory concentration (IC50) reads like this: under setting [1], less than 1000 nM; under setting [2], 118 nM. With `CC(C)(C)NC(=O)CN1CC2(CCC(C(=O)NC34CCC(CC3)CC4)CC2)C1` [Example 8], the IC50 is, setting by setting: under setting [1], less than 1000 nM; under setting [2], 663 nM. With `CC(C)(C)NC(=O)CN1CC2(CCC(C(=O)Nc3cc(F)cc(C(F)F)c3)CC2)C1` [Example 9], the IC50 under setting [1] was less than 1000 nM and the 50% inhibitory concentration (IC50) under setting [2] stood at 78.5 nM. The matching figures for `CCC(C)(C)NC(=O)CN1CC2(CCC(C(=O)Nc3cc(F)cc(Cl)c3)CC2)C1` [Example 10, N-(3-chloro-5-fluorophenyl)-2-(2-oxo-2-(tert-pentylamino)ethyl)-2-azaspiro[3.5]nonane-7-carboxamide]: less than 1000 nM and 142 nM. As to `O=C(Nc1cc(F)cc(Cl)c1)C1CCC2(CC1)CN(Cc1ccc(Cl)cc1)C2` [Example 11], under setting [1], the IC50 was 1000 to 10000 nM. For the compound `CC1(NC(=O)CN2CC3(CCC(C(=O)Nc4cc(F)cc(Cl)c4)CC3)C2)CCC1` [Example 12], the concentration for half-maximal inhibition (IC50) runs as follows: under setting [1], less than 1000 nM; under setting [2], 112 nM. Turning to `O=C(Nc1cc(F)cc(Cl)c1)C1CCC2(CC1)CN(CCC1CCC(F)(F)CC1)C2` [Example 13], the concentration for half-maximal inhibition (IC50) runs as follows: under setting [1], less than 1000 nM; under setting [2], 239 nM.

As to `O=C(Nc1cc(F)cc(Cl)c1)C1CCC2(CC1)CN(Cc1ccc(F)cc1)C2` [Example 14], the 50% inhibitory concentration (IC50) under setting [1] was less than 1000 nM and the IC50 under setting [2] amounted to 612 nM. The matching figures for `CC(C)(NC(=O)CN1CC2(CCC(C(=O)Nc3cc(F)cc(Cl)c3)CC2)C1)C(F)(F)F` [Example 16]: less than 1000 nM and 170 nM. The corresponding values for `O=C(Nc1cc(F)cc(Cl)c1)C1CCC2(CC1)CN(CCC1CCCC1)C2` [Example 17] are less than 1000 nM and 182 nM. Take `COCCNC(=O)CN1CC2(CCC(C(=O)Nc3cc(F)cc(Cl)c3)CC2)C1` [Example 18]: under setting [1], the half-inhibitory concentration (IC50) lay within 1000 to 10000 nM. Consider `O=C(Nc1cc(F)cc(Cl)c1)C1CCC2(CC1)CN(Cc1cccc(C(F)F)c1)C2` [Example 19], for which the IC50 runs as follows: under setting [1], less than 1000 nM; under setting [2], 624 nM.

With `CC(C)(C)c1coc(CN2CC3(CCC(C(=O)Nc4cc(F)cc(Cl)c4)CC3)C2)n1` [Example 20], the IC50 was less than 1000 nM under setting [1] and 988 nM under setting [2]. With `O=C(CN1CC2(CCC(C(=O)Nc3cc(F)cc(Cl)c3)CC2)C1)NC1CCCC1` [Example 21], the IC50 by setting is: under setting [1], less than 1000 nM; under setting [2], less than 78.2 nM. Turning to `CC(C)(C)CCN1CC2(CCC(C(=O)Nc3cc(F)cc(Cl)c3)CC2)C1` [Example 22], the 50% inhibitory concentration (IC50) under setting [1] was less than 1000 nM. As to `O=C(Nc1cc(F)cc(Cl)c1)C1CCC2(CC1)CN(Cc1cccc(Cl)c1)C2` [Example 23], the IC50 under setting [1] was less than 1000 nM and the IC50 under setting [2] was 467 nM.

For `O=C(Nc1cc(F)cc(Cl)c1)C1CCC2(CC1)CN(Cc1cccc(C(F)(F)F)c1)C2` [Example 24], the concentration for half-maximal inhibition (IC50) under setting [1] was less than 1000 nM and the IC50 under setting [2] turned out to be 890 nM.

In the case of `CC(C)(C)NC(=O)CN1CC2(CCC(C(=O)Nc3cc(F)cc(Cl)c3)CC2)C1` [Example 25], the IC50 reads like this: under setting [1], less than 1000 nM; under setting [2], 174 nM. In the case of `CC(C)(C)NC(=O)CN1CC2(CCC(C(=O)NC34CC5CC(CC(C5)C3)C4)CC2)C1` [Example 26], the IC50 under setting [1] was 1000 to 10000 nM. For the compound `CCC(C)(C)NC(=O)CN1CC2(CCC(C(=O)Nc3cc(F)cc(C(F)F)c3)CC2)C1` [Example 27], the IC50 under setting [1] is less than 1000 nM and the half-maximal inhibitory concentration (IC50) under setting [2] was determined as 182 nM. Take `O=C(Nc1cc(F)cc(C(F)F)c1)C1CCC2(CC1)CN(CC1CCC(F)(F)CC1)C2` [Example 28]: the half-inhibitory concentration (IC50) was less than 1000 nM under setting [1] and 370 nM under setting [2]. The corresponding values for `CC1(NC(=O)CN2CC3(CCC(C(=O)Nc4cc(F)cc(C(F)F)c4)CC3)C2)CCC1` [Example 29] are less than 1000 nM and 102 nM.

In the case of `CC(C)(NC(=O)CN1CC2(CCC(C(=O)Nc3cc(F)cc(C(F)F)c3)CC2)C1)C(F)(F)F` [Example 30], the IC50 runs as follows: under setting [1], less than 1000 nM; under setting [2], 192 nM. The matching figures for `O=C(Nc1cc(F)cc(C(F)F)c1)C1CCC2(CC1)CN(CCC1CCCC1)C2` [Example 31]: less than 1000 nM and 376 nM. The corresponding values for `O=C(CN1CC2(CCC(C(=O)Nc3cc(F)cc(C(F)F)c3)CC2)C1)NC1CCCC1` [Example 32] are less than 1000 nM and 139 nM. The corresponding values for `CC(C)(C)CCN1CC2(CCC(C(=O)Nc3cc(F)cc(C(F)F)c3)CC2)C1` [Example 33] are less than 1000 nM and 339 nM.

Take `CCC(C)(C)N(C)C(=O)CN1CC2(CCC(C(=O)Nc3cc(F)cc(C(F)F)c3)CC2)C1` [Example 34]: the 50% inhibitory concentration (IC50) is, setting by setting: under setting [1], less than 1000 nM; under setting [2], 199 nM. Regarding `CN(C(=O)CN1CC2(CCC(C(=O)Nc3cc(F)cc(C(F)F)c3)CC2)C1)C1CCCC1` [Example 35], the IC50 is, setting by setting: under setting [1], less than 1000 nM; under setting [2], 320 nM.

Take `CC(C)(CCN1CC2(CCC(C(=O)Nc3cc(F)cc(C(F)F)c3)CC2)C1)C(F)(F)F` [Example 36]: the half-inhibitory concentration (IC50) runs as follows: under setting [1], less than 1000 nM; under setting [2], 327 nM. The corresponding values for `O=C(Nc1cc(F)cc(C(F)F)c1)C1CCC2(CC1)CN(CCC1CCC(F)(F)CC1)C2` [Example 37] are less than 1000 nM and 323 nM. The corresponding values for `CC1(CCN2CC3(CCC(C(=O)Nc4cc(F)cc(C(F)F)c4)CC3)C2)CC1` [Example 38] are less than 1000 nM and 367 nM.

For `CC(C)(C)NC(=O)CN1CC2(CCC(C(=O)Nc3cccc(Cl)c3)CC2)C1` [Example 39], under setting [2], the IC50 came to 294 nM.

For `CN(C(=O)CN1CC2(CCC(C(=O)Nc3cc(F)cc(C(F)F)c3)CC2)C1)C1(C)CCC1` [Example 40], the IC50 under setting [2] was determined as 338 nM. Still for that read-out and setting: for `O=C(Nc1cc(F)cc(C(F)F)c1)C1CCC2(CC1)CN(CC(=O)N1CCOCC1)C2` [Example 41] the value was 846 nM; for `O=C(Nc1cc(F)cc(C(F)F)c1)C1CCC2(CC1)CN(CC(=O)N1CCOCC13CC3)C2` [Example 42], 703 nM. Same read-out and setting: for `CC1(CCN2CC3(CCC(C(=O)Nc4cc(F)cc(C(F)F)c4)CC3)C2)CCC1` [Example 43] the value was 300 nM; for `CC1(C)COCCN1C(=O)CN1CC2(CCC(C(=O)Nc3cc(F)cc(C(F)F)c3)CC2)C1` [Example 44], 176 nM; for `COCC(C)(C)NC(=O)CN1CC2(CCC(C(=O)Nc3cc(F)cc(C(F)F)c3)CC2)C1` [Example 45], 191 nM. For the compound `CC1(C(=O)NCCN2CC3(CCC(C(=O)Nc4cc(F)cc(C(F)F)c4)CC3)C2)CC1` [Example 49], under setting [2], the IC50 was found to be 723 nM.

As a reminder, the IC50 is the concentration that inhibits the measured activity by half.

Source of the values: patent US20250214932A1, “T-TYPE CALCIUM CHANNEL MODULATORS COMPRISING AN AZASPIRONONANE CORE AND METHODS OF USE THEREOF” (Praxis Precision Medicines, Inc., priority 2022, published 2025).
